Test results taken from patent publication US11173162B2, “Bicyclic heterocycles as FGFR4 inhibitors” (Incyte Corporation, priority 2015, dated 2021).

What follows are compounds tested on FGFR3 enzyme (assay: FGFR Enzymatic Assay (FRET peptide phosphorylation), FGFR3). Settings: IC50 ratio showing FGFR3 selectivity; Table 2A, pre-incubated for 4 hours.
Format: biochemical
Procedure: The inhibitor potency of the exemplified compounds was measured in an enzyme assay that measures peptide phosphorylation using FRET measurements to detect product formation. Inhibitors were serially diluted in DMSO and a volume of 0.5 μL was transferred to the wells of a 384-well plate.
GraphPad prism3 was used to analyze the data.

SMILES | FGFR1/FGFR3 | FGFR4/FGFR3
CCN1C(=O)N(c2c(F)c(OC)cc(OC)c2F)Cc2cnc(-c3ccc(C(=O)NC(C)C)nc3)cc21 [Example 178, 5-(3-(2,6-difluoro-3,5-dimethoxyphenyl)-1-ethyl-2-oxo-1,2,3,4-tetrahydropyrido[4,3-d]pyrimidin-7-yl)-N-isopropylpicolinamide] | >5 | >5
CCN1C(=O)N(c2c(F)c(OC)cc(OC)c2F)Cc2cnc(-c3cn(CC(=O)N4CCOCC4)nc3C)cc21 [Example 51, 3-(2,6-difluoro-3,5-dimethoxyphenyl)-1-ethyl-7-(3-methyl-1-(2-morpholino-2-oxoethyl)-1H-pyrazol-4-yl)-3,4-dihydropyrido[4,3-d]pyrimidin-2(1H)-one] | >1 | >1
COc1cc(OC)c(F)c(N2Cc3cnc(-c4cn(C)nc4C)cc3N(Cc3csc(C)n3)C2=O)c1F [Example 95, 3-(2,6-difluoro-3,5-dimethoxyphenyl)-7-(1,3-dimethyl-1H-pyrazol-4-yl)-1-((2-methylthiazol-4-yl)methyl)-3,4-dihydropyrido[4,3-d]pyrimidin-2(1H)-one] | >5 | >10
COc1cc(OC)c(F)c(N2Cc3cnc(-c4cn(C)nc4C)cc3N(c3ccc4nc(C)oc4c3)C2=O)c1F [Example 75, 3-(2,6-difluoro-3,5-dimethoxyphenyl)-7-(1,3-dimethyl-1H-pyrazol-4-yl)-1-(2-methylbenzo[d]oxazol-6-yl)-3,4-dihydropyrido[4,3-d]pyrimidin-2(1H)-one] | >5 | >3
COc1cc(OC)c(F)c(N2Cc3cnc(-c4cn(C)nc4C)cc3N(C3CCOC3)C2=O)c1F (stereo not shown) [Example 33, 3-(2,6-difluoro-3,5-dimethoxyphenyl)-7-(1,3-dimethyl-1H-pyrazol-4-yl)-1-(tetrahydrofuran-3-yl)-3,4-dihydropyrido[4,3-d]pyrimidin-2(1H)-one] | >5 | >5
COc1cc(OC)c(F)c(N2Cc3cnc(-c4ccccc4)cc3C3(CC3)C2=O)c1F [Example 17, 2′-(2,6-difluoro-3,5-dimethoxyphenyl)-6′-phenyl-1′H-spiro[cyclopropane-1,4′-[2,7]naphthyridin]-3′(2′H)-one] | >10 | –
COc1cc(OC)c(F)c(N2Cc3cnc(-c4cn(C)nc4C)cc3N(C[C@H]3CCOC3)C2=O)c1F [Example 108, (R)-3-(2,6-difluoro-3,5-dimethoxyphenyl)-7-(1,3-dimethyl-1H-pyrazol-4-yl)-1-((tetrahydrofuran-3-yl)methyl)-3,4-dihydropyrido[4,3-d]pyrimidin-2(1H)-one] | >3 | >3
COc1cc(OC)c(F)c(N2Cc3cnc(-c4cn(C)nc4C)cc3N(c3ccc(F)c(C#N)c3)C2=O)c1F [Example 66, 5-(3-(2,6-difluoro-3,5-dimethoxyphenyl)-7-(1,3-dimethyl-1H-pyrazol-4-yl)-2-oxo-3,4-dihydropyrido[4,3-d]pyrimidin-1(2H)-yl)-2-fluorobenzonitrile] | >5 | >5
COc1cc(OC)c(F)c(N2Cc3cnc(-c4cn(C)nc4C)cc3N(c3ccn(C)n3)C2=O)c1F [Example 100, 3-(2,6-difluoro-3,5-dimethoxyphenyl)-7-(1,3-dimethyl-1H-pyrazol-4-yl)-1-(1-methyl-1H-pyrazol-3-yl)-3,4-dihydropyrido[4,3-d]pyrimidin-2(1H)-one] | >5 | >5
COc1cc(OC)c(F)c(N2Cc3cnc(-c4cnn(CC5CCCS(=O)(=O)N5)c4)cc3C3(CC3)C2=O)c1F (stereo not shown) [Example 162, 2′-(2,6-difluoro-3,5-dimethoxyphenyl)-6′-{1-[(1,1-dioxido-1,2-thiazinan-3-yl)methyl]-1H-pyrazol-4-yl}-1′H-spiro[cyclopropane-1,4′-[2,7]naphthyridin]-3′(2′H)-one] | >5 | >1
COc1cc(OC)c(F)c(N2Cc3cnc(-c4cn(C)nc4C)cc3N(Cc3cccnn3)C2=O)c1F [Example 88, 3-(2,6-difluoro-3,5-dimethoxyphenyl)-7-(1,3-dimethyl-1H-pyrazol-4-yl)-1-(pyridazin-3-ylmethyl)-3,4-dihydropyrido[4,3-d]pyrimidin-2(1H)-one] | >5 | >10
COc1cc(OC)c(F)c(N2Cc3cnc(-c4cn(C)nc4C)cc3N(c3ccc(-n4cccn4)cc3)C2=O)c1F [Example 77, 1-(4-(1H-pyrazol-1-yl)phenyl)-3-(2,6-difluoro-3,5-dimethoxyphenyl)-7-(1,3-dimethyl-1H-pyrazol-4-yl)-3,4-dihydropyrido[4,3-d]pyrimidin-2(1H)-one] | >5 | >10
COc1cc(OC)c(F)c(N2Cc3cnc(-c4cn(C)nc4C)cc3N(Cc3ccc(F)c(F)c3)C2=O)c1F [Example 73, 3-(2,6-difluoro-3,5-dimethoxyphenyl)-1-(3,4-difluorobenzyl)-7-(1,3-dimethyl-1H-pyrazol-4-yl)-3,4-dihydropyrido[4,3-d]pyrimidin-2(1H)-one] | >5 | >10
COc1cc(OC)c(F)c(N2Cc3cnc(-c4cn(C)nc4C)cc3N(c3ccc(-c4nnc(C)o4)cc3)C2=O)c1F [Example 115, 3-(2,6-difluoro-3,5-dimethoxyphenyl)-7-(1,3-dimethyl-1H-pyrazol-4-yl)-1-(4-(5-methyl-1,3,4-oxadiazol-2-yl)phenyl)-3,4-dihydropyrido[4,3-d]pyrimidin-2(1H)-one] | >3 | >5
COc1cc(OC)c(F)c(N2Cc3cnc(-c4cn(C)nc4C)cc3N(Cc3ccc(F)cc3)C2=O)c1F [Example 34, 3-(2,6-difluoro-3,5-dimethoxyphenyl)-7-(1,3-dimethyl-1H-pyrazol-4-yl)-1-(4-fluorobenzyl)-3,4-dihydropyrido[4,3-d]pyrimidin-2(1H)-one] | >5 | >10
CCN1C(=O)N(c2c(F)c(OC)cc(OC)c2F)Cc2cnc(-c3ccc(CC#N)cc3)cc21 [Example 180, 2-(4-(3-(2,6-difluoro-3,5-dimethoxyphenyl)-1-ethyl-2-oxo-1,2,3,4-tetrahydropyrido[4,3-d]pyrimidin-7-yl)phenyl)acetonitrile] | >5 | >5
CCN1C(=O)N(c2c(F)c(OC)cc(OC)c2F)Cc2cnc(-c3ccc(C4(C#N)CC4)cc3)cc21 [Example 183, 1-(4-(3-(2,6-difluoro-3,5-dimethoxyphenyl)-1-ethyl-2-oxo-1,2,3,4-tetrahydropyrido[4,3-d]pyrimidin-7-yl)phenyl)cyclopropanecarbonitrile] | >3 | >10
CCN1C(=O)N(c2c(F)c(OC)cc(OC)c2F)Cc2cnc(-c3ccc(C(C)(C)C#N)nc3)cc21 [Example 26, 2-(5-(3-(2,6-difluoro-3,5-dimethoxyphenyl)-1-ethyl-2-oxo-1,2,3,4-tetrahydropyrido[4,3-d]pyrimidin-7-yl)pyridin-2-yl)-2-methylpropanenitrile] | >5 | >5
COc1cc(OC)c(F)c(N2Cc3cnc(-c4cnn(CCC5CCN(S(C)(=O)=O)CC5)c4)cc3C3(CC3)C2=O)c1F [Example 148, 2′-(2,6-difluoro-3,5-dimethoxyphenyl)-6′-(1-(2-(1-(methylsulfonyl)piperidin-4-yl)ethyl)-1H-pyrazol-4-yl)-1′H-spiro[cyclopropane-1,4′-[2,7]naphthyridin]-3′(2′H)-one] | >10 | >3
